This test has as its system GST-Bcl-2. In words: TR-FRET binding assay, Bcl-2. As to conditions: TR-FRET Ki values. The gist of the method: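 Compounds serially diluted in DMSO from 50 μM (2× starting concentration, 10% DMSO), mixed with GST-tagged protein, F-Bak peptide probe and Tb-labeled antibody, incubated 3 h at room temperature.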
On the technique in general: Time-resolved FRET reads energy transfer from a long-lived donor to a nearby acceptor.
Consider `CC1(C)CCC(CN2CCN(c3ccc(C(=O)NS(=O)(=O)c4ccc(NCC5CN(C6CC6)CCO5)c([N+](=O)[O-])c4)c(Oc4cccc5[nH]cnc45)c3)CC2)=C(c2ccc(Cl)cc2)C1` (stereo not drawn) [EXAMPLE 432, 2-(1H-benzimidazol-4-yloxy)-4-(4-{[2-(4-chlorophenyl)-4,4-dimethylcyclohex-1-en-1-yl]methyl}piperazin-1-yl)-N-[(4-{[(4-cyclopropylmorpholin-2-yl)methyl]amino}-3-nitrophenyl)sulfonyl]benzamide], for which the “Binding selectivity ratio (Bcl-XL Ki/Bcl-2 Ki)” value (from here on “Binding selectivity ratio”) was 408.8.

In the case of `CC1(C)CCC(CN2CCN(c3ccc(C(=O)NS(=O)(=O)c4ccc(NCC5CN(C6COC6)CCO5)c([N+](=O)[O-])c4)c(Oc4cccc5[nH]cnc45)c3)CC2)=C(c2ccc(Cl)cc2)C1` (stereo not drawn) [EXAMPLE 433, 2-(1H-benzimidazol-4-yloxy)-4-(4-{[2-(4-chlorophenyl)-4,4-dimethylcyclohex-1-en-1-yl]methyl}piperazin-1-yl)-N-[(3-nitro-4-{[(4-oxetan-3-ylmorpholin-2-yl)methyl]amino}phenyl)sulfonyl]benzamide], the “Binding selectivity ratio” value was 228.55. `CC1(C)CCC(CN2CCN(c3ccc(C(=O)NS(=O)(=O)c4cnc(O[C@@H]5CCN(C(CF)CF)C5)c(Cl)c4)c(Oc4cccc5[nH]ncc45)c3)CC2)=C(c2ccc(Cl)cc2)C1` [EXAMPLE 434, N-{[5-chloro-6-({(3R)-1-[2-fluoro-1-(fluoromethyl)ethyl]pyrrolidin-3-yl}oxy)pyridin-3-yl]sulfonyl}-4-(4-{[2-(4-chlorophenyl)-4,4-dimethylcyclohex-1-en-1-yl]methyl}piperazin-1-yl)-2-(1H-indazol-4-yloxy)benzamide]: the “Binding selectivity ratio” value turned out to be 1459. As for `CN(C)CC(=O)N1CCO[C@H](CNc2ccc(S(=O)(=O)NC(=O)c3ccc(N4CCN(CC5=C(c6ccc(Cl)cc6)CC(C)(C)CC5)CC4)cc3Oc3cccc4[nH]cnc34)cc2[N+](=O)[O-])C1` [EXAMPLE 437, 2-(1H-benzimidazol-4-yloxy)-4-(4-{[2-(4-chlorophenyl)-4,4-dimethylcyclohex-1-en-1-yl]methyl}piperazin-1-yl)-N-{[4-({[(2R)-4-(N,N-dimethylglycyl)morpholin-2-yl]methyl}amino)-3-nitrophenyl]sulfonyl}benzamide], the “Binding selectivity ratio” value turned out to be 51.4. As to `CN(C)CC(=O)N1CCO[C@@H](CNc2ccc(S(=O)(=O)NC(=O)c3ccc(N4CCN(CC5=C(c6ccc(Cl)cc6)CC(C)(C)CC5)CC4)cc3Oc3cccc4[nH]cnc34)cc2[N+](=O)[O-])C1` [EXAMPLE 438, 2-(1H-benzimidazol-4-yloxy)-4-(4-{[2-(4-chlorophenyl)-4,4-dimethylcyclohex-1-en-1-yl]methyl}piperazin-1-yl)-N-{[4-({[(2S)-4-(N,N-dimethylglycyl)morpholin-2-yl]methyl}amino)-3-nitrophenyl]sulfonyl}benzamide], the “Binding selectivity ratio” value stood at 34.5. Turning to `CC1(C)CCC(CN2CCN(c3ccc(C(=O)NS(=O)(=O)c4ccc(NCC5CCOC5)c([N+](=O)[O-])c4)c(Oc4cccc5[nH]cnc45)c3)CC2)=C(c2ccc(Cl)cc2)C1` (stereo not drawn) [EXAMPLE 439, 2-(1H-benzimidazol-4-yloxy)-4-(4-{[2-(4-chlorophenyl)-4,4-dimethylcyclohex-1-en-1-yl]methyl}piperazin-1-yl)-N-({3-nitro-4-[(tetrahydrofuran-3-ylmethyl)amino]phenyl}sulfonyl)benzamide], the “Binding selectivity ratio” value came to 1496.8. On to `CO[C@H]1CC[C@H](CNc2ccc(S(=O)(=O)NC(=O)c3ccc(N4CCN(CC5=C(c6ccc(Cl)cc6)CC(C)(C)CC5)CC4)cc3Oc3cccc4[nH]cnc34)cc2[N+](=O)[O-])CC1` [EXAMPLE 440, Trans-2-(1H-benzimidazol-4-yloxy)-4-(4-{[2-(4-chlorophenyl)-4,4-dimethylcyclohex-1-en-1-yl]methyl}piperazin-1-yl)-N-[(4-{[(4-methoxycyclohexyl)methyl]amino}-3-nitrophenyl)sulfonyl]benzamide], for which the “Binding selectivity ratio” value was 4549.1. Turning to `CC1(C)CCC(CN2CCN(c3ccc(C(=O)NS(=O)(=O)c4ccc(NCC5(F)CCOCC5)c([N+](=O)[O-])c4)c(Oc4cccc5[nH]cnc45)c3)CC2)=C(c2ccc(Cl)cc2)C1` [EXAMPLE 441, 2-(1H-benzimidazol-4-yloxy)-4-(4-{[2-(4-chlorophenyl)-4,4-dimethylcyclohex-1-en-1-yl]methyl}piperazin-1-yl)-N-[(4-{[(4-fluorotetrahydro-2H-pyran-4-yl)methyl]amino}-3-nitrophenyl)sulfonyl]benzamide], the “Binding selectivity ratio” value worked out at 2421.9. For `CC1(C)CCC(CN2CCN(c3ccc(C(=O)NS(=O)(=O)c4cnc(OCC5(F)CCOCC5)c(F)c4)c(Oc4cccc5[nH]cnc45)c3)CC2)=C(c2ccc(Cl)cc2)C1` [EXAMPLE 442, 2-(1H-benzimidazol-4-yloxy)-4-(4-{[2-(4-chlorophenyl)-4,4-dimethylcyclohex-1-en-1-yl]methyl}piperazin-1-yl)-N-({5-fluoro-6-[(4-fluorotetrahydro-2H-pyran-4-yl)methoxy]pyridin-3-yl}sulfonyl)benzamide], the “Binding selectivity ratio” value stood at 3358.9. Turning to `CC1(C)CCC(CN2CCN(c3ccc(C(=O)NS(=O)(=O)c4cnc(OCC5(F)CCOCC5)c(Cl)c4)c(Oc4cccc5[nH]cnc45)c3)CC2)=C(c2ccc(Cl)cc2)C1` [EXAMPLE 443, 2-(1H-benzimidazol-4-yloxy)-N-({5-chloro-6-[(4-fluorotetrahydro-2H-pyran-4-yl)methoxy]pyridin-3-yl}sulfonyl)-4-(4-{[2-(4-chlorophenyl)-4,4-dimethylcyclohex-1-en-1-yl]methyl}piperazin-1-yl)benzamide], the “Binding selectivity ratio” value is given as 1935.7. Consider `CC1(C)CCC(CN2CCN(c3ccc(C(=O)NS(=O)(=O)c4cnc(OC[C@@H]5CCN(C(CF)CF)C5)c(Cl)c4)c(Oc4cccc5[nH]ncc45)c3)CC2)=C(c2ccc(Cl)cc2)C1` [EXAMPLE 444, N-{[5-chloro-6-({(3R)-1-[2-fluoro-1-(fluoromethyl)ethyl]pyrrolidin-3-yl}methoxy)pyridin-3-yl]sulfonyl}-4-(4-{[2-(4-chlorophenyl)-4,4-dimethylcyclohex-1-en-1-yl]methyl}piperazin-1-yl)-2-(1H-indazol-4-yloxy)benzamide], for which the “Binding selectivity ratio” value is 727.625.

As for `CC1(C)CCC(CN2CCN(c3ccc(C(=O)NS(=O)(=O)c4cnc(OC[C@@H]5CCN(CC(F)F)C5)c(Cl)c4)c(Oc4cccc5[nH]ncc45)c3)CC2)=C(c2ccc(Cl)cc2)C1` [EXAMPLE 445, N-[(5-chloro-6-{[(3R)-1-(2,2-difluoroethyl)pyrrolidin-3-yl]methoxy}pyridin-3-yl)sulfonyl]-4-(4-{[2-(4-chlorophenyl)-4,4-dimethylcyclohex-1-en-1-yl]methyl}piperazin-1-yl)-2-(1H-indazol-4-yloxy)benzamide], the “Binding selectivity ratio” value was 484.2. Regarding `CO[C@H]1CC[C@H](CNc2ccc(S(=O)(=O)NC(=O)c3ccc(N4CCN(CC5=C(c6ccc(Cl)cc6)CC(C)(C)CC5)CC4)cc3Oc3cccc4[nH]ncc34)cc2[N+](=O)[O-])CC1` [EXAMPLE 446, Trans-4-(4-{[2-(4-chlorophenyl)-4,4-dimethylcyclohex-1-en-1-yl]methyl}piperazin-1-yl)-2-(1H-indazol-4-yloxy)-N-[(4-{[(4-methoxycyclohexyl)methyl]amino}-3-nitrophenyl)sulfonyl]benzamide], the “Binding selectivity ratio” value came to 508.4. On to `CC1(C)CCC(CN2CCN(c3ccc(C(=O)NS(=O)(=O)c4cnc(NC5CCN(C6CC6)CC5)c(Cl)c4)c(Oc4cccc5[nH]ncc45)c3)CC2)=C(c2ccc(Cl)cc2)C1` [EXAMPLE 448, N-({5-chloro-6-[(1-cyclopropylpiperidin-4-yl)amino]pyridin-3-yl}sulfonyl)-4-(4-{[2-(4-chlorophenyl)-4,4-dimethylcyclohex-1-en-1-yl]methyl}piperazin-1-yl)-2-(1H-indazol-4-yloxy)benzamide], for which the “Binding selectivity ratio” value is 3119.

Turning to `CC1(C)CCC(CN2CCN(c3ccc(C(=O)NS(=O)(=O)c4cnc(NC5CCN(C6CC6)CC5)c(Cl)c4)c(Oc4cccc5[nH]cnc45)c3)CC2)=C(c2ccc(Cl)cc2)C1` [EXAMPLE 449, 2-(1H-benzimidazol-4-yloxy)-N-({5-chloro-6-[(1-cyclopropylpiperidin-4-yl)amino]pyridin-3-yl}sulfonyl)-4-(4-{[2-(4-chlorophenyl)-4,4-dimethylcyclohex-1-en-1-yl]methyl}piperazin-1-yl)benzamide], the “Binding selectivity ratio” value is recorded as 74.4.

Consider `CC1(C)CCC(CN2CCN(c3ccc(C(=O)NS(=O)(=O)c4ccc(NCC5COCCO5)c([N+](=O)[O-])c4)c(Oc4cccc5[nH]cnc45)c3)CC2)=C(c2ccc(Cl)cc2)C1` (stereo not drawn) [EXAMPLE 450, 2-(1H-benzimidazol-4-yloxy)-4-(4-{[2-(4-chlorophenyl)-4,4-dimethylcyclohex-1-en-1-yl]methyl}piperazin-1-yl)-N-({4-[(1,4-dioxan-2-ylmethyl)amino]-3-nitrophenyl}sulfonyl)benzamide], for which the “Binding selectivity ratio” value was determined as 107.3.

Regarding `CC1(C)CCC(CN2CCN(c3ccc(C(=O)NS(=O)(=O)c4ccc(NC5CCN(C6CC6)CC5)c([N+](=O)[O-])c4)c(Oc4cccc5[nH]cnc45)c3)CC2)=C(c2ccc(Cl)cc2)C1` [EXAMPLE 451, 2-(1H-benzimidazol-4-yloxy)-4-(4-{[2-(4-chlorophenyl)-4,4-dimethylcyclohex-1-en-1-yl]methyl}piperazin-1-yl)-N-({4-[(1-cyclopropylpiperidin-4-yl)amino]-3-nitrophenyl}sulfonyl)benzamide], the “Binding selectivity ratio” value is given as 359.92. For `CC1(C)CCC(CN2CCN(c3ccc(C(=O)NS(=O)(=O)c4ccc(N[C@H]5CC[C@H](N6CCOCC6)CC5)c([N+](=O)[O-])c4)c(Oc4cccc5[nH]cnc45)c3)CC2)=C(c2ccc(Cl)cc2)C1` [EXAMPLE 452, Trans-2-(1H-benzimidazol-4-yloxy)-4-(4-{[2-(4-chlorophenyl)-4,4-dimethylcyclohex-1-en-1-yl]methyl}piperazin-1-yl)-N-({4-[(4-morpholin-4-ylcyclohexyl)amino]-3-nitrophenyl}sulfonyl)benzamide], the “Binding selectivity ratio” value stood at 600.39.

Source of the values: patent US9125913B2, “Bcl-2-selective apoptosis-inducing agents for the treatment of cancer and immune diseases” (AbbVie Inc., priority 2008, dated 2015).
